# Source: US10106818B2, “Dual-color HIV reporter system for the detection of latently-infected cells” (priority 2013, dated 2018)
# Legend:
# [1] = tested on: latent HIV in 89mASG- and R7GEmC-infected single-positive Jurkat T cells; test: Reactivation of latent HIV in sorted single-positive (latent) Jurkat T cells, FACS; format: cell-based, HIV-1; conditions: for reactivation activity (percent population in the productive gate): 89mASG and R7GEmC single-positive latent populations, 30, 10 and 3 μM; for expression of HIV promoter-dependent reporter: 89mASG and R7GEmC latent Jurkat T cells, 10 ng/ml TNFα, 5 μM prostratin or 2.5 μM SAHA alone
# [2] = tested on: latent HIV in sorted GFP-only 89mASG-infected Jurkat cells; test: High-throughput imaging screen for latent HIV reactivation (Tocriscreen library); format: cell-based, HIV-1; conditions: 24 hr; for red signal (mApple, reactivated virus) versus negative controls: positive control wells, 10 ng/ml TNFα, 5 μM prostratin or 2.5 μM SAHA and combinations; for reactivation of latent HIV in the screen: 30 μM, total red area higher than median+2 SD of negative control wells
# Text: (§1) Sorted 89mASG-infected, GFP-only-positive Jurkat cells were used to test the Tocriscreen drug library for latent HIV reactivation (see Methods). (a) Dot plot showing quantification of total blue area (Hoechst 33342 signal, total cell) against total red area (mApple signal, reactivated HIV). Red dots indicate the position of untreated wells (Negative controls); the shaded area indicates the median±2SD of the red/blue area ratio for negative control wells. Green dots indicate positive control wells, treated with 10 ng/ml TNFα, 5 μM prostratin or 2.5 μM SAHA and their combinations. […] Representative FACS plots of sorted single-positive Jurkat T cells for both viruses. The productive gate contains the reactivated cells. […] (c,d) Histogram plot of percent population in the productive gate (grey) for each treatment and percentage of cells in the live gate (light blue) for sorted single-positive Jurkat T cells for 89mASG (c) and R7GEmC (d) reporters. Data shown as mean±SD for three different treatments. For each compound, a grey triangle between the histograms indicates decreasing drug concentration (30, 10 and 3 μM). […] (e) FACS analysis of drug treatments combined with 0.5 μM SAHA, 0.5 μM prostratin and 0.5 ng/ml TNFα. Representative FACS plots of sorted GFP-only-positive Jurkat T cells for 89mASG treated with DMSO (control), SAHA (0.5 μM) alone or with terreic acid (10 μM) and dilazep (30 μM). (f) Histogram plot of percent population of the sorted cells in the productive gate for each treatment at indicated concentrations (μM).
# [3] = tested on: latent provirus in mCherry-only R7GEmC-infected primary CD4+ T cells; test: Reactivation of sorted mCherry-only (latent) primary CD4+ T cells infected with R7GEmC; format: cell-based, HIV-1; conditions: for response of mCherry-only positive cells to treatment: three pooled donors, 1 μM prostratin, 1 μM SAHA
# Description: HEK293T, Jurkat, A301 and SupT1 cell lines were obtained from ATCC. Suspension cells were cultured in RPMI 1640 supplemented with 10% FBS, 100 U/ml penicillin, […] streptomycin and 2 mM L-glutamine (PSG) (37° C., 5% CO2). Peripheral blood from healthy human donors was obtained from the Stanford Blood Center and processed the day of collection. CD4^+ T cells were isolated with RosetteSep Human CD4^+ T-Cell Enrichment Cocktail (Stem Cell Technologies) and cultured in human cell medium (HCM, RPMI, 10% human AB pooled serum, PSG). Resting CD4^+ T cells were activated in U-bottom 96-well TC plates with 25 μl human anti-CD3 and anti-CD28-coated dynabeads/10^6 cells (48 h). Dynabeads were removed by magnetic separation and cells seeded in HCM with 30 IU/ml rhIL-2. Cell lines and activated CD4^+ cells were infected by spinoculation (Lassen et al., PLoS One. 2012; 7(1):e30176, which is hereby incorporated by reference in its entirety) with a virus amount equivalent to 20 ng p24 or as indicated. Viral infection was assessed by fluorescence activated cell sorting (FACS) analysis after 72 h. At 5 days post-infection, cells were sorted to separate negative, single- or double-positive cells. Sorted cell lines were treated after re-expansion for 5-15 days. Cells were seeded in 96-well U plates and treated for 24 h before analysis. […]
# The extent to which mCherry-only-positive populations could be reactivated by further stimulation was next evaluated. […]
# (a) FACS analysis of activated CD4^+ T cells from two human donors (#1, #2) infected with R7GEmC at indicated virus amounts. (b) Fluorescence microscopy image of infected CD4^+ T cells showing mCherry-positive (latent, red) and GFP-positive (active, green) cells. (c) qPCR quantification of proviral DNA in the sorted populations, using primer-probe combinations for the HIV-1 gag gene and the RNAseP gene for normalization. […] (d) Western blot quantification of HIV gag and cell α-actin in sorted CD4^+ T cell populations from pooled donors. […]
# HIV RNA expression = conditions: recent study; cited from earlier work
# [4] = tested on: latent HIV in sorted latent-cell populations (GFP-only-positive 89mASG Jurkat T cells); test: Co-treatment with low levels of SAHA, prostratin or TNFα, FACS; format: cell-based, HIV-1; conditions: 24 h; for effect on HIV latency in combination with SAHA: 10 μM with low SAHA (0.5 μM); for interaction with prostratin: with low prostratin (0.5 μM)
# Text: Thus, it might be of interest to identify compounds that can potentiate HIV reactivation by SAHA or prostratin or TNFα.
# as §1
# [5] = tested on: R7GEmC infection of activated CD4+ T cells; test: Infection of activated CD4+ T cells with R7GEmC in the presence of integrase inhibitor (pre-integration latency); format: cell-based, HIV-1; conditions: 30 μM Raltegravir; after 3 days
# Text: HIV latency in vivo is reported to result, in part, from pre-integration latency, whereby unintegrated proviral DNA (after full retrotranscription) is maintained in a stable cytoplasmic form in a quiescent cell, and can respond to cell activation by de novo integration and productive infection. To rule out pre-integration latency, activated CD4^+ T cells were infected with R7GEmC in the presence of the HIV integrase inhibitor raltegravir (FIG. 6A).
# (a) FACS analysis of activated CD4^+ T cells from two human donors (#1, #2) infected with R7GEMC alone or with 30 μM Raltegravir (RALTE 30). (b) Analysis of sorted CD4^+ T-cell populations from donors 1 and 2, after 48 h with anti-CD3/CD28-coated Dynabeads (αCD3/28), alone, with 30 μM Raltegravir, or untreated (CTR).
molecule,measurement,setting,value
"N#C/C(=C\c1ccc(O)c(O)c1)C(=O)NCCCc1ccccc1 [AG555, α-Cyano-(3,4-dihydroxy)-N-(3-phenylpropyl)cinnamide]",reactivation activity (percent population in the productive gate),[1],slight but significant reactivation activity
O=C1C(SCCO)=C(SCCO)C(=O)c2ccccc21 [NSC 95397],reactivation activity (percent population in the productive gate),[1],clear artifacts or false positives
"O=C(CCCCCCC(=O)Nc1ccccc1)NO [SAHA, suberoylanilide hydroxamic acid]",expression of HIV promoter-dependent reporter,[1],increased expression of HIV promoter-dependent reporter
same,"red signal (mApple, reactivated virus) versus negative controls",[2],notably higher red signal
same,response of mCherry-only positive cells to treatment,[3],A subset of less-bright mCherry-only positive cells also responded
same,reactivation of HIV RNA expression in patients,HIV RNA expression,can reactivate HIV RNA expression in a subset of patients
"CN1CCc2cccc3c2[C@H]1Cc1ccc(O)c(O)c1-3 [apomorphin, apomorphine]",reactivation activity (percent population in the productive gate),[1],distinct effects in the two HIV clones
COc1cc(C(=O)OCCCN2CCCN(CCCOC(=O)c3cc(OC)c(OC)c(OC)c3)CC2)cc(OC)c1OC [dilazep],reactivation activity (percent population in the productive gate),[1],slight but significant reactivation activity
same,effect on HIV latency in combination with SAHA,[4],strongly enhanced the effect of low SAHA concentrations
same,interaction with prostratin,[4],synergistic with prostratin
O=c1c(-c2ccc(O)cc2)coc2cc(O)cc(O)c12 [genistein],reactivation of latent HIV in the screen,[2],reactivated latent HIV
"CC(=O)O[C@@]12C[C@@H](C)[C@@]3(O)[C@@H](C=C(CO)C[C@]4(O)C(=O)C(C)=C[C@@H]34)[C@@H]1C2(C)C [prostratin, (1aR,1bS,4aR,7aS,7bR,8R,9aS)-4a,7b-dihydroxy-3-(hydroxymethyl)-1,1,6,8-tetramethyl-5-oxo-1,1a,1b,4,4a,5,7a,7b,8,9-decahydro-9aH-cyclopropa[3,4]benzo[1,2-e]azulen-9a-yl]",expression of HIV promoter-dependent reporter,[1],increased expression of HIV promoter-dependent reporter
same,"red signal (mApple, reactivated virus) versus negative controls",[2],notably higher red signal
same,response of mCherry-only positive cells to treatment,[3],A subset of less-bright mCherry-only positive cells also responded
Cc1nnc(C(=O)NC(C)(C)c2nc(C(=O)NCc3ccc(F)cc3)c(O)c(=O)n2C)o1 [raltegravir],effect on viral reactivation in the mCherry-only-positive population,"[3]; 30 μM Raltegravir with anti-CD3/CD28-coated Dynabeads, 48 h",did not reduce viral reactivation
same,integration-independent expression of the fluorescent proteins,[5],no integration-independent expression of the fluorescent proteins
Oc1ccc(C=Cc2cc(O)cc(O)c2)cc1 [resveratrol],reactivation of latent HIV in the screen,[2],reactivated latent HIV
"CC1=C(O)C(=O)[C@@H]2O[C@@H]2C1=O [terreic acid, (−)-terreic acid]",reactivation activity (percent population in the productive gate),[1],slight but significant reactivation activity
same,effect on HIV latency in combination with SAHA,[4],strongly enhanced the effect of low SAHA concentrations
same,interaction with TNFα,[4]; with low TNFα (0.5 ng/ml),synergistic interaction in most combinations except terreic acid
same,interaction with prostratin,[4],synergistic with prostratin
TNF-α,expression of HIV promoter-dependent reporter,[1],increased expression of HIV promoter-dependent reporter
same,"red signal (mApple, reactivated virus) versus negative controls",[2],notably higher red signal
